Measured values as given in patent publication US20250177405A1, “METHODS OF TREATING NEUROLOGICAL AND CARDIOVASCULAR CONDITIONS” (ASTROCYTE PHARMACEUTICALS, INC., priority 2021, published 2025).
“Also recorded” adds a separate entry of the source.

How the values were obtained:
[1] = I-1 plasma and CSF concentrations during bolus/infusion regimen in tMCAO efficacy study; type: in vivo, Macaca fascicularis; details: for predicted I-1 [Plasma]: 22 h infusion; for Measured I-1 [CSF] / measured I-1 [Plasma]: 22 h, n = 4
Protocol: Macaques received a bolus dose of vehicle (40% PEG400 in 0.9% saline) or I-1 into a saphenous vein 2 h after occlusion (2 h prior to restoration of MCA blood flow), followed immediately by a 22 h intravenous infusion. This dosing regimen was designed to rapidly achieve and maintain pre-determined plasma and cerebrospinal fluid (CSF) steady-state concentrations of I-1 based on its pharmacokinetics previously determined in näive and MCA occluded macaques (Tables A-C below).
During MRI, vehicle or I-1 were infused into the saphenous vein via a syringe pump (TOP5500E, TOP Corp., Tokyo, Japan). Infusion following MRI was maintained via a portable, programmable IPRECIO® Dual infusion pump (DMP-100; Primetech Corp., Tokyo, Japan) ported into a jugular venous line, both being secured in a jacket. Methods for pharmacokinetic sampling and bioanalytical analysis of plasma and CSF are described below.
Blood samples (1.0 mL) were withdrawn into heparinized tubes from either the opposite cephalic or the femoral vein at 3, 6, 24, 48, 72 hours and 5 days post-occlusion. Heparinized blood was centrifuged at 4° C. at 1,800×g for 10 min. In the same animals, 0.3-0.5 mL of cerebrospinal fluid (CSF) was withdrawn at 6 and 24 hours post-occlusion. Macaques were sedated with ketamine (10 mg/kg, i.m.), CSF was collected via puncture of the cisterna magna. Plasma and CSF samples were flash frozen in liquid nitrogen and then stored at −70 C until shipment for processing. Samples were shipped on dry ice. Plasma and CSF concentrations of I-1 were determined by LC/MS/MS utilizing standard curves (performed at the Department of Bio Research, Kamakura Techno-Science, Inc. Kanagawa, Japan). Lower limits of quantitation for compound I-1 were 1.0 ng/mL and 0.1 ng/mL for plasma and CSF, respectively.

brain A1R/A3R = experiment: estimated brain receptor occupancy of I-1 in neonatal pig efficacy studies; type: in vivo
Source text: Receptor occupancy is a mass action relationship:
The percentage of a receptor occupied by an agonist or antagonist is a function of the drug concentration and the drug affinity for the receptor target. The challenge is that drug concentrations at the target site (in this case, brain, and CSF) can vary by species, as can affinity for the drug target. Affinity of I-1 for its receptor target can vary by as much as 5-fold between species. Accordingly, for each species, it is necessary to determine the I-1 affinity for its target as well as the concentration of I-1 at each administered dose in a relevant matrix.
Using this receptor occupancy estimate, we advanced to studies in neonatal pigs, targeting doses that would yield unbound brain and CSF concentrations that would provide a similar receptor occupancy to that associated with efficacy in the rodent models. In the pig, we had the advantage of conducting pharmacokinetic studies involving CSF collection, brain equilibrium dialysis to directly determine brain unbound extracellular fluid concentrations, plasma concentrations and finally total brain concentrations. […] This was a key study to validate the use of I-1 CSF concentrations to estimate brain receptor occupancy. In the pig efficacy studies, we achieved efficacy at estimated receptor occupancies of around 2%.

[2] = tested on: traumatic brain injury (TBI) in mice; experiment: mouse traumatic brain injury (TBI) model; details: in vivo
Protocol: Animals and traumatic brain injury (TBI): TBI is performed with a controlled closed skull injury model as described in Talley-Watts et al. 2012 (J. Neurotrauma 30, 55-66). Following the method described therein, a pneumatic impact device is used to generate a moderate TBI leaving the skull and dura matter intact. To achieve this, C57BL/6 mice are anesthetized with isoflurane (3% induction, 1% maintenance) in 100% oxygen. A body temperature of 37° C. is maintained using a temperature-controlled heated surgical table. A small midline incision is made on the scalp using aseptic surgical techniques. A 5 mm stainless steel disc is positioned on the skull and fixed using superglue on the right parietal bone between bregma and lamda over the somatosensory cortex. The mouse is then positioned on a stage directly under the pneumatic impact tip. […] Mice are placed in a Thermo-Intensive Care Unit (Braintree Scientific model FV-1; 37° C.; 27% O2) and monitored until fully awake and moving freely. […]
Western Blot Analysis for GFAP: At selected survival times, mice are anesthetized under isoflurane and sacrificed. […] The homogenate is transferred to a 2 mL tube and centrifuged at 1000 g for 10 minutes at 4° C. and the supernatant is collected and analyzed. Protein concentration is determined by the BCA assay using a 1:50 dilution. […]

[3] = brain tissue binding (free fraction); type: in vitro ADME, mouse
Source text: Example 3 of U.S. Pat. No. 9,789,131, which is incorporated herein by reference, describes assays for determining the plasma and brain free fraction of certain compounds such as I-1. Compounds described herein may be evaluated using such assays or similar variants thereof.

[4] = High dose group, 5.2 mg/kg, 2.8 mg/kg/h, mean ± SEM
[5] = Low dose group, 0.47 mg/kg, 0.25 mg/kg/h, mean ± SEM
[6] = Mid dose group, 1.7 mg/kg, 0.9 mg/kg/h, mean ± SEM

With `CSc1nc(N)c2ncn([C@H]3C(O)C(O)[C@]4(CO)C[C@H]34)c2n1` (stereo in doubt) [Compound I-1] the “plasma I-1 after end of infusion” value ([1]; 24 h following termination of Mid and High dose infusions) was “Measurable concentrations”, the “predicted I-1 [Plasma]” value ([1]; High dose group, 5.2 mg/kg bolus, 2.8 mg/kg/h) was 1660 ng/mL and the “Measured I-1 [CSF]” value [1, 4] was 108 ± 35 ng/mL. For the same compound, the “measured I-1 [Plasma]” value [1, 4] was 1127 ± 246 ng/mL, the “predicted I-1 [Plasma]” value ([1]; Low dose group, 0.47 mg/kg bolus, 0.25 mg/kg/h) was 150 ng/mL and the “Measured I-1 [CSF]” value [1, 5] was 8.8 ± 2.6 ng/mL. The “measured I-1 [Plasma]” value [1, 5] was 186 ± 24 ng/mL, the “predicted I-1 [Plasma]” value ([1]; Mid dose group, 1.7 mg/kg bolus, 0.9 mg/kg/h) was 540 ng/mL and the “Measured I-1 [CSF]” value [1, 6] was 16.8 ± 5.7 ng/mL. The “measured I-1 [Plasma]” value [1, 6] was 483 ± 23 ng/mL, the “predicted I-1 [Plasma]” value ([1]; Very Low dose group, 0.11 mg/kg bolus, 0.06 mg/kg/h) was 35 ng/mL and the “measured I-1 [Plasma]” value ([1]; Very Low dose group, 0.11 mg/kg, 0.06 mg/kg/h, mean ± SEM of average over 22-hour infusion) was 32 ± 11 ng/mL. For the same compound, the “Measured I-1 [CSF]” value ([1]; Very Low dose group, 0.11 mg/kg, 0.06 mg/kg/h, mean ± SEM) was 2.1 ± 0.4 ng/mL, the “average plasma and CSF concentrations relative to targets” value ([1]; combined bolus/infusion regimen, all dose levels) was ≤ 2 fold and the plasma/CSF ratio ([1]; correlation of I-1 plasma and CSF concentrations, FIG. 5C) was “approximately 10”. The “estimated receptor occupancies at which efficacy was achieved” value (brain A1R/A3R) was “around 2%”, the “efficacy in mouse TBI model” value [2] was “effective; also recorded: significant efficacy” and the “free (unbound) fraction in brain” value ([3]; mouse brain tissue) was 0.13. For the same compound, the “fraction available to interact with the A3 receptor, versus Cl-IB-IMECA” value ([3]; mouse models) was “at least 1000 fold”.
